Activity calls are given as the source filed them. The rule behind the calls is not given here.
How the values were obtained:
Mus musculus [1] = test: Anti-inflammatory activity against Escherichia coli ATCC 25922-induced peritonitis ICR mouse model assessed as decrease in TNF-alpha level in serum spleen at 5 mg/kg, ip measured after 12 hrs; assay type: functional, organism-based
Mus musculus [2] = test: Anti-inflammatory activity against Escherichia coli ATCC 25922-induced peritonitis ICR mouse model assessed as decrease in IL-1 beta level in serum spleen at 5 mg/kg, ip measured after 12 hrs; assay type: functional, organism-based
Mus musculus [3] = test: Anti-inflammatory activity against Escherichia coli ATCC 25922-induced peritonitis ICR mouse model assessed as decrease in IL-6 level in serum spleen at 5 mg/kg, ip measured after 12 hrs; assay type: functional, organism-based
Acinetobacter baumannii [4] = test: Antimicrobial activity against Acinetobacter baumannii AB1902 assessed as increase in absorbance incubated for 20 to 22 hrs; assay type: functional; conditions: time 20-22 hrs
Staphylococcus aureus = test: Antimicrobial activity against Staphylococcus aureus 11011 assessed as increase in absorbance incubated for 20 to 22 hrs; assay type: functional; conditions: time 20-22 hrs
Acinetobacter baumannii [5] = test: Antimicrobial activity against Acinetobacter baumannii AB1901 assessed as increase in absorbance incubated for 20 to 22 hrs; assay type: functional; conditions: time 20-22 hrs
Pseudomonas aeruginosa = test: Antimicrobial activity against Pseudomonas aeruginosa 25349 assessed as increase in absorbance incubated for 20 to 22 hrs; assay type: functional; conditions: time 20-22 hrs
Escherichia coli = test: Resistance fold, ratio of MIC for Escherichia coli ATCC 25922 measured after 7 day passage period to MIC for Escherichia coli ATCC 25922; assay type: functional

Row | Structure (SMILES) | Activity (Mus musculus [1]) | Activity (Mus musculus [2]) | Activity (Mus musculus [3]) | MIC (Acinetobacter baumannii [4]) [µM] | MIC (Staphylococcus aureus) [µM] | MIC (Acinetobacter baumannii [5]) [µM] | MIC (Pseudomonas aeruginosa) [µM] | fold change (FC) (Escherichia coli)
1 | CNC(C)[C@@H]1CC[C@@H](N)[C@@H](O[C@H]2[C@H](O)[C@@H](O[C@H]3OC[C@](C)(O)[C@H](NC)[C@H]3O)[C@H](N)C[C@@H]2N)O1.CN[C@@H]1[C@@H](O)[C@@H](O[C@@H]2[C@@H](O)[C@H](O[C@H]3O[C@H](C(C)N)CC[C@H]3N)[C@@H](N)C[C@H]2N)OC[C@]1(C)O.CN[C@@H]1[C@@H](O)[C@@H](O[C@@H]2[C@@H](O)[C@H](O[C@H]3O[C@H](CN)CC[C@H]3N)[C@@H](N)C[C@H]2N)OC[C@]1(C)O (stereo partly drawn) | Active | Active | Active | > 64 | > 64 | 0.25 | 0.25 | –
2 | CN(C)[C@@H]1C(O)=C(C(N)=O)C(=O)[C@@]2(O)C(O)=C3C(=O)c4c(O)cccc4[C@@](C)(O)[C@H]3C[C@@H]12 [TETRACYCLINE] | – | – | – | – | – | – | – | 8

From ChEMBL document CHEMBL6087476, “Positive Charge-Concentrated Dimeric Lipopeptides with Enhanced Protease Resistance: A Potential Solution for Systemic Bacterial Infections” (J Med Chem, 2025)
